This is an account of results in US11541050B2, “Pyrimidine derivatives for the treatment of viral infections” (JANSSEN SCIENCES IRELAND UC, priority 2011, dated 2023).

Format in all cases: cell-based
Set-up in all cases: unit not given here

For assay [1], the system named is human TLR7 mutant sequence comprising a deletion in the second leucine-rich repeat. Description: TLR7 cellular NFκB-luc reporter assay, mutant TLR7 with deletion in the second leucine-rich repeat. Particulars: lowest effective concentration. As to the method: (§1) The ability of compounds to activate human TLR7 and/or TLR8 was assessed in a cellular reporter assay using HEK293 cells transiently transfected with a TLR7 or TLR8 expression vector and NFκB-luc reporter construct. In one instance the TLR expression construct expresses the respective wild type sequence or a mutant sequence comprising a deletion in the second leucine-rich repeat of the TLR.
(§2) Briefly, HEK293 cells were grown in culture medium (DMEM supplemented with 10% FCS and 2 mM Glutamine). For transfection of cells in 10 cm dishes, cells were detached with Trypsin-EDTA, transfected with a mix of CMV-TLR7 or TLR8 plasmid (750 ng), NFκB-luc plasmid (375 ng) and a transfection reagent and incubated for 48 hours at 37° C. in a humidified 5% CO2 atmosphere. […] Thirty microliters of cells were then dispensed into each well in 384-well plates, where 10 μL of compound in 4% DMSO was already present. Following 6 hours incubation at 37° C., 5% CO2, the luciferase activity was determined by adding 15 μl of Steady Lite Plus substrate (Perkin Elmer) to each well and readout performed on a ViewLux ultraHTS microplate imager (Perkin Elmer). Dose response curves were generated from measurements performed in quadruplicates.
Background: A reporter such as luciferase makes a cellular process visible.

For assay [2], the target named is T1, human TLR8 (wild type sequence) (Homo sapiens, UniProt Q9NR97).
T1 construct: expressed in transfected cells; host or cells: HEK293
T1 sequence (Q9NR97 27-1041): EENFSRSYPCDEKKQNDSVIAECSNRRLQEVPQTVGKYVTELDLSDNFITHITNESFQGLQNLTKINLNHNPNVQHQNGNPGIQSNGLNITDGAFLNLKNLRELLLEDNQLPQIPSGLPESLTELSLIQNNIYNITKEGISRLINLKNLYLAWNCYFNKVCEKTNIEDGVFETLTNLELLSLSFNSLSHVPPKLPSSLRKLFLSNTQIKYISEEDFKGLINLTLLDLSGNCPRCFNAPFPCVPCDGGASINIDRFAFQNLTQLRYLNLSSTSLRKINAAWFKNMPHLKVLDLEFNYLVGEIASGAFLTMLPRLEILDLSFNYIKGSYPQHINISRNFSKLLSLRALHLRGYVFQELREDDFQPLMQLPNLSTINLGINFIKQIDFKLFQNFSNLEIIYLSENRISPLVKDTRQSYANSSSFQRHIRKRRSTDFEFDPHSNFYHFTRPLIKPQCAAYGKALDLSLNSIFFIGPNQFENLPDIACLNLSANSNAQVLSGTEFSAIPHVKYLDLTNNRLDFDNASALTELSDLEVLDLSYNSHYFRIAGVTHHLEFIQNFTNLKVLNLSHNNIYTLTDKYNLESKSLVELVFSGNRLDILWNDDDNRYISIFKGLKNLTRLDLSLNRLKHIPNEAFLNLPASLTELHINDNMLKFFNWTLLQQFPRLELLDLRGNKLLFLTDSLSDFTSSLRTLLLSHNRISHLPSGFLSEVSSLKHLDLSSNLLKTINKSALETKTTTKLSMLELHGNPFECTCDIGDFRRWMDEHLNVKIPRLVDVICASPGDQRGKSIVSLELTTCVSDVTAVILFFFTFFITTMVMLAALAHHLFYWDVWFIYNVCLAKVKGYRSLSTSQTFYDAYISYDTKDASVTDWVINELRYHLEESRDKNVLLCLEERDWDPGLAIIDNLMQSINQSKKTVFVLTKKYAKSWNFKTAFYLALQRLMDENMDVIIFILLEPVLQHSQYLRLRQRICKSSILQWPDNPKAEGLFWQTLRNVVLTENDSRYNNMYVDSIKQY
Description: TLR8 cellular NFκB-luc reporter assay, wild type TLR8. To be noted: lowest effective concentration. The method, boiled down:
(§3)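 HEK293 cells were transiently transfected for 48 h with a CMV-driven wild-type or LRR2-deletion TLR7 or TLR8 plasmid plus an NFκB-luc reporter. They were then exposed to compound for 6 h at 37 °C and luciferase was read. LEC is the concentration giving an effect at least twofold above the assay SD, from quadruplicate dose-response curves.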

For assay [3], the target named is T2, human TLR7 (wild type sequence) (Homo sapiens, UniProt Q9NYK1).
T2 construct: expressed in transfected cells; host or cells: HEK293
T2 sequence (Q9NYK1 27-1049): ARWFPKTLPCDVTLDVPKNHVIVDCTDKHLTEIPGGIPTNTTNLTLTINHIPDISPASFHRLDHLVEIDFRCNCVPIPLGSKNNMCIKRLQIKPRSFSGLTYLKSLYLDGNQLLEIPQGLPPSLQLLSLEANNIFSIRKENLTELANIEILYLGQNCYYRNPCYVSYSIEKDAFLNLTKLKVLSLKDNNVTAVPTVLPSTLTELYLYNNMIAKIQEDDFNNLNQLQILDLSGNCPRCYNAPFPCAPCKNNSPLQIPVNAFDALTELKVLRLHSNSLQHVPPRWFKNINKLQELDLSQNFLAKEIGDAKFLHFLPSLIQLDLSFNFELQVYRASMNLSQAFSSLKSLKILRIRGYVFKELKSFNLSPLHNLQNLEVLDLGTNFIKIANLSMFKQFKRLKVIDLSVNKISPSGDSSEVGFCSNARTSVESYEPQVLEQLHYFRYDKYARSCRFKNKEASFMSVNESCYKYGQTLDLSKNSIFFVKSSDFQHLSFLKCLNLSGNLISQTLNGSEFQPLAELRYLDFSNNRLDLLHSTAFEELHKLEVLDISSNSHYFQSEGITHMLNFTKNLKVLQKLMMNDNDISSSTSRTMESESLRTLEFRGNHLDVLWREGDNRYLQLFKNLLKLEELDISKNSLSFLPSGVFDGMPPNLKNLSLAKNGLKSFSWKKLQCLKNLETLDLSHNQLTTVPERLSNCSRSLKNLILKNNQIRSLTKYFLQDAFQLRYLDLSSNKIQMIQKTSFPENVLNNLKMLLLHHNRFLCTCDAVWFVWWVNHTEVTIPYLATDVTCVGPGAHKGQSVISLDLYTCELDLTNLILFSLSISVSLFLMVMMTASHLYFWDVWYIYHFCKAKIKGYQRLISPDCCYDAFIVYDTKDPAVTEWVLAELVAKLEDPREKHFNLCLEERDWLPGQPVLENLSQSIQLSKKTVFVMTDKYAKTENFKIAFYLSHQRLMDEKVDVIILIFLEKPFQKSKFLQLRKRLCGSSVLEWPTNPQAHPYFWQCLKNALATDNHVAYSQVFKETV
Description: TLR7 cellular NFκB-luc reporter assay, wild type TLR7. Particulars: lowest effective concentration, wild type TLR7. In short, it runs like this:
as §3

Assay [4] deals with human TLR8 mutant sequence comprising a deletion in the second leucine-rich repeat. In words: TLR8 cellular NFκB-luc reporter assay, mutant TLR8 with deletion in the second leucine-rich repeat. To be noted: lowest effective concentration. As to the method: as §1, §2

Regarding `CCC[C@@H](CO)Nc1nc(N)ncc1OCCOC` [Compound 196], in assay [1], the TLR7-dIRR2_LEC was determined as 0.469. In addition, in assay [2], the TLR8-wt_LEC worked out at 0.687. Also, the TLR7-wt_LEC in assay [3] is 1.900.
In the same order, the values of `CCCC[C@@H](CO)Nc1nc(N)ncc1OCCOC` [Compound 197] are 0.624, 0.767 and 2.650.
Taken in the same sequence, the figures for `CCCC[C@@H](CO)Nc1nc(N)ncc1OCc1ccc2ccccc2n1` [Compound 198] were 0.511, 0.089 and 0.076.
Taken in the same sequence, the figures for `CCC[C@@H](CO)Nc1nc(N)ncc1OCCCc1ccc(OC)cc1` [Compound 200] were 0.181, 0.200 and 0.253.
In turn, `CCCC[C@@H](CO)Nc1nc(N)ncc1OCCCc1ccc(OC)cc1` [Compound 201] yielded a TLR7-dIRR2_LEC in assay [1] of 0.647. In assay [2], this compound yielded a TLR8-wt_LEC of 0.758. Further, the TLR7-wt_LEC in assay [3] is 0.566.
As to `CCC[C@@H](CO)Nc1nc(N)ncc1OCc1cccc(C)n1` [Compound 202], in assay [1], the TLR7-dIRR2_LEC worked out at 0.089. The TLR8-wt_LEC in assay [2] amounted to 0.049. Also, in assay [3], the TLR7-wt_LEC came out at 0.164.
Taken in the same sequence, the figures for `CCCC[C@@H](CO)Nc1nc(N)ncc1OCc1cccc(C)n1` [Compound 203] were 0.160, 0.054 and 0.124.
Take `CCC[C@@H](CO)Nc1nc(N)ncc1OCCCc1ccc2c(c1)OCO2` [Compound 204]: in assay [1], the TLR7-dIRR2_LEC is on record as 0.791. The compound further registered a TLR8-wt_LEC in assay [2] of 0.493. In assay [3], this compound gave a TLR7-wt_LEC of 0.791.
As for `CCC[C@@H](CCO)Nc1nc(N)ncc1OCc1cn2ccccc2n1` [Compound 205], the TLR7-dIRR2_LEC in assay [1] is 1.110. The TLR8-wt_LEC in assay [2] came out at 0.047. The TLR7-wt_LEC in assay [3] came out at 0.369.
For the compound `CCCCNc1nc(N)ncc1OCC1(C)COC1` [Compound 206], the TLR7-dIRR2_LEC in assay [1] is reported as 9.450. In assay [2], this compound gave a TLR8-wt_LEC of over 23.81. The same compound had a TLR7-wt_LEC in assay [3] of over 25.
Taken in the same sequence, the figures for `CCCC[C@@H](CCO)Nc1nc(N)ncc1OCc1cn2ccccc2n1` [Compound 207] were 1.450, 0.063 and 0.177.
As to `CCCC[C@@H](CCO)Nc1nc(N)ncc1OCc1nccc2ccccc12` [Compound 208], in assay [1], the TLR7-dIRR2_LEC was 0.093. Also, the TLR7-wt_LEC in assay [3] came to 0.001.
In assay [1], `CCCCNc1nc(N)ncc1OCc1cn2ccccc2n1` [Compound 209] registered a TLR7-dIRR2_LEC of 0.667. Besides, in assay [2], the TLR8-wt_LEC turned out to be 0.076. Besides, in assay [3], the TLR7-wt_LEC is 0.074.
The compound `CCCCNc1nc(N)ncc1OCc1ccc(C#N)cc1` [Compound 210] registered a TLR7-dIRR2_LEC in assay [1] of 0.896. Moreover, in assay [2], the TLR8-wt_LEC came to 0.237. This compound came in with a TLR7-wt_LEC in assay [3] of 0.686.
Taken in the same sequence, the figures for `CCCCNc1nc(N)ncc1OCc1cn2ccncc2n1` [Compound 211] were 1.040, 0.097 and 0.208.
Taken in the same sequence, the figures for `CCC[C@H](C)Nc1nc(N)ncc1OCc1nccc2ccccc12` [Compound 212] were 0.148, 0.005 and 0.007.
Regarding `CCCCNc1nc(N)ncc1OCc1ncccc1F` [Compound 213], the TLR8-dIRR2_LEC in assay [4] is 0.032. The TLR7-dIRR2_LEC in assay [1] is reported as 0.207. The compound also displayed a TLR7-wt_LEC in assay [3] of 0.225.
Taken in the same sequence, the figures for `CCC[C@@H](CO)Nc1nc(N)ncc1OCc1nccc(OC)c1OC` [Compound 214] were 0.027, 0.593 and 0.134.
In assay [4], `CCC[C@@H](CO)Nc1nc(N)ncc1OCc1cn2ccccc2n1` [Compound 215] registered a TLR8-dIRR2_LEC of 0.029. The compound further registered a TLR7-dIRR2_LEC in assay [1] of 0.300. The same compound came in with a TLR7-wt_LEC in assay [3] of 0.171.
The compound `CCCC[C@@H](CO)Nc1nc(N)ncc1OCc1nccc2ccccc12` [Compound 216] had a TLR8-dIRR2_LEC in assay [4] of 0.002. In assay [1], this compound displayed a TLR7-dIRR2_LEC of 0.111. Moreover, the TLR7-wt_LEC in assay [3] came out at 0.008.
`CCCC[C@@H](CO)Nc1nc(N)ncc1OCc1nccc(OC)c1OC` [Compound 217] gave a TLR8-dIRR2_LEC in assay [4] of 0.007. Moreover, the TLR7-dIRR2_LEC in assay [1] is 0.433. Further, the TLR7-wt_LEC in assay [3] was found to be 0.106.
In the same order, the values of `CCCC[C@@H](CO)Nc1nc(N)ncc1OCc1cn2ccccc2n1` [Compound 218] are 0.032, 0.352 and 0.154.
In the case of `CCC[C@@H](C)Nc1nc(N)ncc1OCc1nccc2ccccc12` [Compound 219], in assay [4], the TLR8-dIRR2_LEC is 0.029. The compound further had a TLR7-dIRR2_LEC in assay [1] of 1.640. In assay [3], this compound showed a TLR7-wt_LEC of 0.125.
In the same order, the values of `CCCCNc1nc(N)ncc1OCCCC(=O)OC` [Compound 220] are 1.720, 1.450 and 1.940.
Taken in the same sequence, the figures for `CCCCNc1nc(N)ncc1OCCCC(=O)OC(C)C` [Compound 221] were 0.496, 0.859 and 0.654.
Taken in the same sequence, the figures for `CCCC[C@@H](CCO)Nc1nc(N)ncc1OCc1cc2ccccc2cn1` [Compound 223] were 0.033, 1.400 and 0.100.
`C=CC[C@H](CCCC)Nc1nc(N)ncc1OC` [Compound 292] gave a TLR7-dIRR2_LEC in assay [1] of 3.082. The TLR7-wt_LEC in assay [3] was 0.913.
